Measured values: PubChem BioAssay (NCI)
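How tested: cells in 96-well plates exposed to compound for 48 hours at five concentrations. GI50 is the concentration that inhibits growth by half. TGI: concentration producing complete growth inhibition.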

Assays:
Assay in all cases: inhibition of tumour cell growth, NCI panel, 48 h
MALME-3M melanoma = test system: MALME-3M melanoma
CCRF-CEM leukemia = test system: CCRF-CEM leukemia
SF-295 CNS = test system: SF-295 CNS
HS 578T breast = test system: HS 578T breast
786-0 renal = test system: 786-0 renal
A549 NSCLC = test system: A549 NSCLC
T-47D breast = test system: T-47D breast
LOX IMVI melanoma = test system: LOX IMVI melanoma
BT-549 breast = test system: BT-549 breast
EKVX NSCLC = test system: EKVX NSCLC
SF-268 CNS = test system: SF-268 CNS
UO-31 renal = test system: UO-31 renal
NCI/ADR-RES ovarian = test system: NCI/ADR-RES ovarian
KM12 colon = test system: KM12 colon
OVCAR-3 ovarian = test system: OVCAR-3 ovarian
SF-539 CNS = test system: SF-539 CNS
UACC-62 melanoma = test system: UACC-62 melanoma
U251 CNS = test system: U251 CNS
A498 renal = test system: A498 renal
IGROV1 ovarian = test system: IGROV1 ovarian
OVCAR-4 ovarian = test system: OVCAR-4 ovarian
COLO 205 colon = test system: COLO 205 colon
HL-60(TB) leukemia = test system: HL-60(TB) leukemia
CAKI-1 renal = test system: CAKI-1 renal
SNB-19 CNS = test system: SNB-19 CNS
SNB-75 CNS = test system: SNB-75 CNS
PC-3 prostate = test system: PC-3 prostate
TK-10 renal = test system: TK-10 renal
HCC-2998 colon = test system: HCC-2998 colon
SN12C renal = test system: SN12C renal
MOLT-4 leukemia = test system: MOLT-4 leukemia
SK-MEL-28 melanoma = test system: SK-MEL-28 melanoma
RPMI-8226 leukemia = test system: RPMI-8226 leukemia
HOP-92 NSCLC = test system: HOP-92 NSCLC
MCF7 breast = test system: MCF7 breast
NCI-H522 lung = test system: NCI-H522 lung
MDA-MB-435 = test system: MDA-MB-435
DU-145 prostate = test system: DU-145 prostate
OVCAR-8 ovarian = test system: OVCAR-8 ovarian
SK-MEL-2 melanoma = test system: SK-MEL-2 melanoma
HCT-15 colon = test system: HCT-15 colon
NCI-H460 lung = test system: NCI-H460 lung
K-562 leukemia = test system: K-562 leukemia
SW-620 colon = test system: SW-620 colon
HCT-116 colon = test system: HCT-116 colon
HOP-62 NSCLC = test system: HOP-62 NSCLC
OVCAR-5 ovarian = test system: OVCAR-5 ovarian
ACHN renal = test system: ACHN renal
RXF 393 renal = test system: RXF 393 renal
HT29 colon = test system: HT29 colon
SK-OV-3 ovarian = test system: SK-OV-3 ovarian
SK-MEL-5 melanoma = test system: SK-MEL-5 melanoma
UACC-257 melanoma = test system: UACC-257 melanoma
NCI-H226 lung = test system: NCI-H226 lung
SR leukemia = test system: SR leukemia
M14 melanoma = test system: M14 melanoma
MDA-MB-231 breast = test system: MDA-MB-231 breast

`COc1cc2cc(Oc3ccc(NC(=O)c4cccc(C(F)(F)F)c4)cc3)c(C)nc2cc1OCCN1CCCCC1` was tested, and the GI50 (MALME-3M melanoma) was 18.3 µM, the TGI (MALME-3M melanoma) was 34 µM and the GI50 (CCRF-CEM leukemia) was 29.8 µM. It also gave a TGI (CCRF-CEM leukemia) of over 100 µM, a GI50 (SF-295 CNS) of 18.3 µM and a TGI (SF-295 CNS) of 34 µM. The GI50 (HS 578T breast) was 19.4 µM, the TGI (HS 578T breast) was 53 µM and the GI50 (786-0 renal) was 16.5 µM. For the same molecule, the TGI (786-0 renal) was 32.8 µM, the GI50 (A549 NSCLC) was 27.5 µM and the TGI (A549 NSCLC) was over 100 µM. It also gave a GI50 (T-47D breast) of 18.1 µM, a TGI (T-47D breast) of 46.1 µM and a GI50 (LOX IMVI melanoma) of 17.8 µM. The TGI (LOX IMVI melanoma) was 32.5 µM, the GI50 (BT-549 breast) was over 100 µM and the TGI (BT-549 breast) was over 100 µM. It also gave a GI50 (EKVX NSCLC) of 31.6 µM, a TGI (EKVX NSCLC) of over 100 µM and a GI50 (SF-268 CNS) of 20.4 µM. The TGI (SF-268 CNS) was 43.4 µM, the GI50 (UO-31 renal) was 15.4 µM and the TGI (UO-31 renal) was 30 µM. The GI50 (NCI/ADR-RES ovarian) was 33.9 µM, the TGI (NCI/ADR-RES ovarian) was over 100 µM and the GI50 (KM12 colon) was 30.3 µM. The TGI (KM12 colon) was over 100 µM, the GI50 (OVCAR-3 ovarian) was 22.3 µM and the TGI (OVCAR-3 ovarian) was 47.6 µM. It also gave a GI50 (SF-539 CNS) of 16.9 µM, a TGI (SF-539 CNS) of 30.9 µM and a GI50 (UACC-62 melanoma) of 18.8 µM. The TGI (UACC-62 melanoma) was 36.1 µM, the GI50 (U251 CNS) was 17.8 µM and the TGI (U251 CNS) was 34 µM. It also gave a GI50 (A498 renal) of over 100 µM, a TGI (A498 renal) of over 100 µM and a GI50 (IGROV1 ovarian) of 38.4 µM. For the same molecule, the TGI (IGROV1 ovarian) was over 100 µM, the GI50 (OVCAR-4 ovarian) was 19.4 µM and the TGI (OVCAR-4 ovarian) was 45.7 µM. For the same molecule, the GI50 (COLO 205 colon) was 16.4 µM, the TGI (COLO 205 colon) was 31 µM and the GI50 (HL-60(TB) leukemia) was 19.6 µM. It also gave a TGI (HL-60(TB) leukemia) of 42.4 µM, a GI50 (CAKI-1 renal) of 16 µM and a TGI (CAKI-1 renal) of 32.2 µM. The GI50 (SNB-19 CNS) was 34.8 µM, the TGI (SNB-19 CNS) was over 100 µM and the GI50 (SNB-75 CNS) was 15 µM. For the same molecule, the TGI (SNB-75 CNS) was 29.9 µM, the GI50 (PC-3 prostate) was 19 µM and the TGI (PC-3 prostate) was 42 µM. It also gave a GI50 (TK-10 renal) of over 100 µM, a TGI (TK-10 renal) of over 100 µM and a GI50 (HCC-2998 colon) of 18.2 µM. It also gave a TGI (HCC-2998 colon) of 34.6 µM, a GI50 (SN12C renal) of 17.6 µM and a TGI (SN12C renal) of 34.4 µM. The GI50 (MOLT-4 leukemia) was 20.9 µM, the TGI (MOLT-4 leukemia) was 58.5 µM and the GI50 (SK-MEL-28 melanoma) was 17.1 µM. For the same molecule, the TGI (SK-MEL-28 melanoma) was 31.4 µM, the GI50 (RPMI-8226 leukemia) was 20.6 µM and the TGI (RPMI-8226 leukemia) was 52.4 µM. The GI50 (HOP-92 NSCLC) was 21.7 µM, the TGI (HOP-92 NSCLC) was over 100 µM and the GI50 (MCF7 breast) was 14.4 µM. For the same molecule, the TGI (MCF7 breast) was 29.7 µM, the GI50 (NCI-H522 lung) was 16 µM and the TGI (NCI-H522 lung) was 31.3 µM. For the same molecule, the GI50 (MDA-MB-435) was 16.7 µM, the TGI (MDA-MB-435) was 31.4 µM and the GI50 (DU-145 prostate) was 41.6 µM. For the same molecule, the TGI (DU-145 prostate) was over 100 µM, the GI50 (OVCAR-8 ovarian) was 18.2 µM and the TGI (OVCAR-8 ovarian) was 36.7 µM. For the same molecule, the GI50 (SK-MEL-2 melanoma) was over 100 µM, the TGI (SK-MEL-2 melanoma) was over 100 µM and the GI50 (HCT-15 colon) was 16 µM. The TGI (HCT-15 colon) was 30.9 µM, the GI50 (NCI-H460 lung) was 19 µM and the TGI (NCI-H460 lung) was 37.3 µM. It also gave a GI50 (K-562 leukemia) of 19.3 µM, a TGI (K-562 leukemia) of 47 µM and a GI50 (SW-620 colon) of 21.3 µM. For the same molecule, the TGI (SW-620 colon) was 42.8 µM, the GI50 (HCT-116 colon) was 20.6 µM and the TGI (HCT-116 colon) was 48.9 µM. The GI50 (HOP-62 NSCLC) was 33.6 µM, the TGI (HOP-62 NSCLC) was over 100 µM and the GI50 (OVCAR-5 ovarian) was 41.4 µM. The TGI (OVCAR-5 ovarian) was over 100 µM, the GI50 (ACHN renal) was 21.5 µM and the TGI (ACHN renal) was 49.2 µM. For the same molecule, the GI50 (RXF 393 renal) was 13.2 µM, the TGI (RXF 393 renal) was 26.6 µM and the GI50 (HT29 colon) was 18 µM. For the same molecule, the TGI (HT29 colon) was 37.1 µM, the GI50 (SK-OV-3 ovarian) was over 100 µM and the TGI (SK-OV-3 ovarian) was over 100 µM. For the same molecule, the GI50 (SK-MEL-5 melanoma) was 17.1 µM, the TGI (SK-MEL-5 melanoma) was 30.9 µM and the GI50 (UACC-257 melanoma) was 17.2 µM. For the same molecule, the TGI (UACC-257 melanoma) was 32.2 µM, the GI50 (NCI-H226 lung) was over 100 µM and the TGI (NCI-H226 lung) was over 100 µM. The GI50 (SR leukemia) was 18.2 µM, the TGI (SR leukemia) was 46.1 µM and the GI50 (M14 melanoma) was 17.9 µM. The TGI (M14 melanoma) was 35.1 µM, the GI50 (MDA-MB-231 breast) was 18.4 µM and the TGI (MDA-MB-231 breast) was 36.9 µM.
